These results are taken from patent publication US20070276011A1, “Plasminogen Activator Inhibitor-1 Inhibitor” (priority 2003, published 2007).

In this experiment the target is recombinant human PAI-1 (Homo sapiens, UniProt P05121). Briefly: PAI-1 inhibitory activity, Test Method A (tPA fluorogenic substrate, Tris buffer pH8.0, 37 C). It counts as biochemical. The conditions noted are these: 25 μM test compound; Test Method A.
Sequence of recombinant human PAI-1 (P05121 24-402): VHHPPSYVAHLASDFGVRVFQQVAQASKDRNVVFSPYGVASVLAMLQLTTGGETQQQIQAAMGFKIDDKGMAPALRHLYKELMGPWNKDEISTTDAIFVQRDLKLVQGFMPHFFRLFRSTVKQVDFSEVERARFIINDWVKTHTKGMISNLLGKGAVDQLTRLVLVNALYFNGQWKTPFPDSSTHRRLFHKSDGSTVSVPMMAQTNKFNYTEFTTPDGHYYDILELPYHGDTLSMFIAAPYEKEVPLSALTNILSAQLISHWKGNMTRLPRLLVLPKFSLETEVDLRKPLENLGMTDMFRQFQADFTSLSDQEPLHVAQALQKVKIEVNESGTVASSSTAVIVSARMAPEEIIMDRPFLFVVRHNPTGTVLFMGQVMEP
Regarding `COC(=O)c1cccc(NC(=O)c2cc(C=C3SC(=O)N(Cc4ccc(Cl)c(Cl)c4)C3=O)ccc2O)c1` [compound 417, 5-{4-hydroxy-3-[3-(methoxycarbonyl)phenylcarbamoyl]benzylidene}-3-(3,4-dichlorobenzyl)thiazolidine-2,4-dione], the “Inhibitory Ratio at 25 μM (%)” value stood at 59%.

Consider `O=C(O)c1ccc(CN2C(=O)SC(=Cc3ccc(O)c(C(=O)Nc4ccc(Cl)c(Cl)c4)c3)C2=O)cc1` [compound 418], for which the “Inhibitory Ratio at 25 μM (%)” value came to 80%.

In the case of `O=C(O)c1ccc(NC(=O)c2cc(C=C3SC(=O)N(Cc4ccc(Cl)c(Cl)c4)C3=O)ccc2O)cc1` [compound 419], the “Inhibitory Ratio at 25 μM (%)” value was greater than 99%.

`O=C(O)c1cccc(NC(=O)c2cc(C=C3SC(=O)N(Cc4ccc(Cl)c(Cl)c4)C3=O)ccc2O)c1` [compound 420]: the “Inhibitory Ratio at 25 μM (%)” value is 85%.

`COc1ccc(Oc2ccc(C(F)(F)F)cc2NC(=O)c2cc(C=C3SC(=O)N(Cc4cccc(Oc5ccccc5)c4)C3=O)ccc2O)cc1` [compound 421, 5-(4-hydroxy-3-{[2-(4-methoxyphenoxy)-5-(trifluoromethyl)-phenyl]carbamoyl}benzylidene)-3-(3-phenoxybenzyl)thiazolidine-2,4-dione]: the “Inhibitory Ratio at 25 μM (%)” value is on record as greater than 99%.

Turning to `O=C(Nc1cc(C(F)(F)F)ccc1Oc1ccc(O)cc1)c1cc(C=C2SC(=O)N(Cc3ccc(Cl)c(Cl)c3)C2=O)ccc1O` [compound 422], the “Inhibitory Ratio at 25 μM (%)” value stood at 95%.

As to `O=C(Nc1cccc([N+](=O)[O-])c1)c1cc(C=C2SC(=O)N(Cc3ccc(Cl)c(Cl)c3)C2=O)ccc1O` [compound 424], the “Inhibitory Ratio at 25 μM (%)” value turned out to be 87%.

In the case of `O=C(OCc1ccccc1)c1cc(C=C2SC(=O)N(Cc3ccc(Cl)c(Cl)c3)C2=O)cc(-c2ccccc2)c1O` [compound 426, 5-[3-Phenyl-4-hydroxy-5-(benzyloxycarbonyl)benzylidene]-3-(3,4-dichlorobenzyl)thiazolidine-2,4-dione], the “Inhibitory Ratio at 25 μM (%)” value is reported as 91%.

Take `COC(=O)c1ccc(C(=O)n2cc(C=C3SC(=O)N(Cc4ccc(Cl)c(Cl)c4)C3=O)c3ccccc32)cc1` [compound 427]: the “Inhibitory Ratio at 25 μM (%)” value was determined as 85%.

In the case of `O=C(Nc1ccc2c(c1)OCO2)c1cc(C=C2SC(=O)N(Cc3ccc(Cl)c(Cl)c3)C2=O)ccc1O` [compound 428], the “Inhibitory Ratio at 25 μM (%)” value is 86%.

In the case of `COC(=O)c1cc(C=C2SC(=O)N(Cc3ccc(Cl)cc3Cl)C2=O)cc(OC)c1O` [compound 429], the “Inhibitory Ratio at 25 μM (%)” value turned out to be 83%.

Turning to `O=C(O)c1cc(C=C2SC(=O)N(Cc3ccc(Cl)c(Cl)c3)C2=O)cc(-c2ccccc2)c1O` [compound 430], the “Inhibitory Ratio at 25 μM (%)” value is 87%.

`COc1ccc(NC(=O)c2cc(C=C3SC(=O)N(Cc4ccc(Cl)c(Cl)c4)C3=O)ccc2O)cc1OC` [compound 432, 5-[4-hydroxy-3-(3,4-dimethoxyphenylcarbamoyl)benzylidene]-3-(3,4-dichlorobenzyl)thiazolidine-2,4-dione]: the “Inhibitory Ratio at 25 μM (%)” value is 64%.

Regarding `COc1cc(NC(=O)c2cc(C=C3SC(=O)N(Cc4ccc(Cl)c(Cl)c4)C3=O)ccc2O)cc(OC)c1OC` [compound 433, 5-[4-hydroxy-3-(3,4,5-trimethoxyphenylcarbamoyl)benzylidene]-3-(3,4-dichlorobenzyl)thiazolidine-2,4-dione], the “Inhibitory Ratio at 25 μM (%)” value is recorded as greater than 99%.

With `COc1cccc(NC(=O)c2cc(C=C3SC(=O)N(Cc4ccc(Cl)c(Cl)c4)C3=O)ccc2O)c1OC` [compound 434, 5-[4-hydroxy-3-(2,3-dimethoxyphenylcarbamoyl)benzylidene]-3-(3,4-dichlorobenzyl)thiazolidine-2,4-dione], the “Inhibitory Ratio at 25 μM (%)” value is on record as greater than 99%.

Turning to `COC(=O)c1ccc(NC(=O)c2cc(C=C3SC(=O)N(Cc4ccc(Cl)c(Cl)c4)C3=O)ccc2O)cc1O` [compound 437], the “Inhibitory Ratio at 25 μM (%)” value is recorded as 69%.

Consider `COc1cc(C=C2SC(=O)N(Cc3ccc(Cl)c(Cl)c3)C2=O)cc(C(=O)Nc2cc(C(F)(F)F)cc(C(F)(F)F)c2)c1O` [compound 438], for which the “Inhibitory Ratio at 25 μM (%)” value was greater than 99%.

For `COc1cc(C=C2SC(=O)N(Cc3ccc(Cl)c(Cl)c3)C2=O)cc(C(=O)Nc2cc(C(F)(F)F)ccc2Cl)c1O` [compound 439], the “Inhibitory Ratio at 25 μM (%)” value is on record as 89%.

As to `COc1cc(C=C2SC(=O)N(Cc3ccc(Cl)c(Cl)c3)C2=O)cc(C(=O)Nc2ccccc2)c1O` [compound 440], the “Inhibitory Ratio at 25 μM (%)” value is given as 82%.

Regarding `O=C(Nc1cc(C(F)(F)F)ccc1F)c1cc(C=C2SC(=O)N(Cc3ccc(Cl)c(Cl)c3)C2=O)ccc1O` [compound 442], the “Inhibitory Ratio at 25 μM (%)” value is listed as 58%.

In the case of `O=C1SC(=Cc2ccc(O)c(-c3ccc(O)c(O)c3)c2)C(=O)N1Cc1ccc(Cl)c(Cl)c1` [compound 445], the “Inhibitory Ratio at 25 μM (%)” value is reported as greater than 99%.

In the case of `O=C(O)c1c(O)cc(C=C2SC(=O)N(Cc3ccc(Cl)c(Cl)c3)C2=O)cc1O` [compound 446], the “Inhibitory Ratio at 25 μM (%)” value is greater than 99%.

In the case of `COc1ccc(-c2cc(C=C3SC(=O)N(Cc4ccc(Cl)c(Cl)c4)C3=O)ccc2OC)cc1` [compound 448, 5-[4-Methoxy-3-(4-methoxyphenyl)benzylidene]-3-(3,4-dichlorobenzyl)thiazolidine-2,4-dione], the “Inhibitory Ratio at 25 μM (%)” value was 51%.

On to `O=C1SC(=Cc2ccc(O)c(-c3c(O)cccc3O)c2)C(=O)N1Cc1ccc(Cl)c(Cl)c1` [compound 449], for which the “Inhibitory Ratio at 25 μM (%)” value is recorded as greater than 99%.

Turning to `COc1ccc(C)c(NC(=O)c2cc(C=C3SC(=O)N(Cc4ccc(Cl)c(Cl)c4)C3=O)ccc2O)c1` [compound 450, 5-[4-hydroxy-3-(2-methyl-5-methoxyphenylcarbamoyl)-benzylidene]-3-(3,4-dichlorobenzyl)thiazolidine-2,4-dione], the “Inhibitory Ratio at 25 μM (%)” value is reported as 87%.

With `COc1cc(NC(=O)c2cc(C=C3SC(=O)N(Cc4ccc(Cl)c(Cl)c4)C3=O)ccc2O)cc(C(F)(F)F)c1` [compound 451, 5-{4-hydroxy-3-[3-methoxy-5-(trifluoromethyl)phenylcarbamoyl]-benzylidene}-3-(3,4-dichlorobenzyl)thiazolidine-2,4-dione], the “Inhibitory Ratio at 25 μM (%)” value is greater than 99%.

Turning to `COc1ccc(C)cc1NC(=O)c1cc(C=C2SC(=O)N(Cc3ccc(Cl)c(Cl)c3)C2=O)ccc1O` [compound 452, 5-[4-hydroxy-3-(2-methoxy-5-methylphenylcarbamoyl)-benzylidene]-3-(3,4-dichlorobenzyl)thiazolidine-2,4-dione], the “Inhibitory Ratio at 25 μM (%)” value is greater than 99%.

With `COC(=O)c1ccc(Cl)cc1NC(=O)c1cc(C=C2SC(=O)N(Cc3ccc(Cl)c(Cl)c3)C2=O)ccc1O` [compound 453, 5-[4-hydroxy-3-(2-methoxycarbonyl-5-chlorophenylcarbamoyl)-benzylidene]-3-(3,4-dichlorobenzyl)thiazolidine-2,4-dione], the “Inhibitory Ratio at 25 μM (%)” value is on record as greater than 99%.

For the molecule `COc1ccc(Cl)cc1NC(=O)c1cc(C=C2SC(=O)N(Cc3ccc(Cl)c(Cl)c3)C2=O)ccc1O` [compound 454], the “Inhibitory Ratio at 25 μM (%)” value is listed as greater than 99%.

As for `COc1ccc(-c2ccccc2)cc1NC(=O)c1cc(C=C2SC(=O)N(Cc3ccc(Cl)c(Cl)c3)C2=O)ccc1O` [compound 455], the “Inhibitory Ratio at 25 μM (%)” value is recorded as greater than 99%.

Take `Cc1ccc(O)cc1NC(=O)c1cc(C=C2SC(=O)N(Cc3ccc(Cl)c(Cl)c3)C2=O)ccc1O` [compound 456]: the “Inhibitory Ratio at 25 μM (%)” value was found to be 83%.

Turning to `Cc1ccc(O)c(NC(=O)c2cc(C=C3SC(=O)N(Cc4ccc(Cl)c(Cl)c4)C3=O)ccc2O)c1` [compound 457], the “Inhibitory Ratio at 25 μM (%)” value is reported as greater than 99%.

Regarding `O=C(Nc1cc(Cl)ccc1C(=O)O)c1cc(C=C2SC(=O)N(Cc3ccc(Cl)c(Cl)c3)C2=O)ccc1O` [compound 458], the “Inhibitory Ratio at 25 μM (%)” value is given as greater than 99%.

As for `O=C(Nc1cc(O)cc(C(F)(F)F)c1)c1cc(C=C2SC(=O)N(Cc3ccc(Cl)c(Cl)c3)C2=O)ccc1O` [compound 459], the “Inhibitory Ratio at 25 μM (%)” value is recorded as greater than 99%.

Consider `O=C(Nc1cccc2c1OC(F)(F)O2)c1cc(C=C2SC(=O)N(Cc3ccc(Cl)c(Cl)c3)C2=O)ccc1O` [compound 460], for which the “Inhibitory Ratio at 25 μM (%)” value is 57%.

`O=C(OCc1ccccc1)c1cc(C=C2SC(=O)N(Cc3ccc(Cl)c(Cl)c3)C2=O)cc(O)c1O` [compound 463, 5-[3,4-Dihydroxy-5-(benzyloxycarbonyl)benzylidene]-3-(3,4-dichlorobenzyl)thiazolidine-2,4-dione]: the “Inhibitory Ratio at 25 μM (%)” value is greater than 99%.

Take `O=C(O)c1cc(C=C2SC(=O)N(Cc3ccc(Cl)c(Cl)c3)C2=O)cc(O)c1O` [compound 464, 5-(3,4-dihydroxy-5-carboxybenzylidene)-3-(3,4-dichlorobenzyl)-thiazolidine-2,4-dione]: the “Inhibitory Ratio at 25 μM (%)” value is greater than 99%.

`O=C(Nc1cc(F)ccc1F)c1cc(C=C2SC(=O)N(Cc3ccc(Cl)c(Cl)c3)C2=O)ccc1O` [compound 465]: the “Inhibitory Ratio at 25 μM (%)” value is recorded as 69%.

`O=C(Nc1cc(C(F)(F)F)ccc1[N+](=O)[O-])c1cc(C=C2SC(=O)N(Cc3ccc(Cl)c(Cl)c3)C2=O)ccc1O` [compound 466]: the “Inhibitory Ratio at 25 μM (%)” value is on record as greater than 99%.

As to `COc1ccc(C(C)(C)C)cc1NC(=O)c1cc(C=C2SC(=O)N(Cc3ccc(Cl)c(Cl)c3)C2=O)ccc1O` [compound 467], the “Inhibitory Ratio at 25 μM (%)” value is greater than 99%.

In the case of `COc1ccc(C(F)(F)F)cc1NC(=O)c1cc(C=C2SC(=O)N(Cc3ccc(Cl)c(Cl)c3)C2=O)ccc1O` [compound 468], the “Inhibitory Ratio at 25 μM (%)” value was greater than 99%.

As to `O=C(Nc1cc(C(F)(F)F)ccc1Cl)c1cc(C=C2SC(=O)N(Cc3ccc(Cl)c(Cl)c3)C2=O)cc(O)c1O` [compound 469], the “Inhibitory Ratio at 25 μM (%)” value is reported as greater than 99%.

Turning to `COC(=O)c1cccc(NC(=O)c2cc(C=C3SC(=O)N(Cc4ccc(Cl)c(Cl)c4)C3=O)cc(O)c2O)c1` [compound 470], the “Inhibitory Ratio at 25 μM (%)” value turned out to be 95%.

As to `COc1ccc(OC)c(NC(=O)c2cc(C=C3SC(=O)N(Cc4ccc(Cl)c(Cl)c4)C3=O)ccc2O)c1` [compound 471], the “Inhibitory Ratio at 25 μM (%)” value amounted to 96%.

Consider `CC(C)c1ccc(NC(=O)c2cc(C=C3SC(=O)N(Cc4ccc(Cl)c(Cl)c4)C3=O)ccc2O)c(Br)c1` [compound 472], for which the “Inhibitory Ratio at 25 μM (%)” value was determined as 94%.

Consider `O=C(Nc1ccc2c(c1)OCO2)c1cc(C=C2SC(=O)N(Cc3ccc(Cl)c(Cl)c3)C2=O)cc(O)c1O` [compound 474], for which the “Inhibitory Ratio at 25 μM (%)” value is recorded as 82%.
